Source: publication PMC9299836 (eLife, 2022)

Target: mGluR2 (Mus musculus, UniProt Q14BI2, A548F)
Test: smFRET of azi-CRD: cross-correlation of donor and acceptor intensities (CRD dynamics) and HMM transition density plots;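 also: single detergent-solubilized receptors captured on antibody-coated flow cells via C-terminal FLAG-tag, imaged by smFRET, donor and acceptor intensity traces from three independent biological replicates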

Chain of mGluR2 (Q14BI2 19-872 A548F): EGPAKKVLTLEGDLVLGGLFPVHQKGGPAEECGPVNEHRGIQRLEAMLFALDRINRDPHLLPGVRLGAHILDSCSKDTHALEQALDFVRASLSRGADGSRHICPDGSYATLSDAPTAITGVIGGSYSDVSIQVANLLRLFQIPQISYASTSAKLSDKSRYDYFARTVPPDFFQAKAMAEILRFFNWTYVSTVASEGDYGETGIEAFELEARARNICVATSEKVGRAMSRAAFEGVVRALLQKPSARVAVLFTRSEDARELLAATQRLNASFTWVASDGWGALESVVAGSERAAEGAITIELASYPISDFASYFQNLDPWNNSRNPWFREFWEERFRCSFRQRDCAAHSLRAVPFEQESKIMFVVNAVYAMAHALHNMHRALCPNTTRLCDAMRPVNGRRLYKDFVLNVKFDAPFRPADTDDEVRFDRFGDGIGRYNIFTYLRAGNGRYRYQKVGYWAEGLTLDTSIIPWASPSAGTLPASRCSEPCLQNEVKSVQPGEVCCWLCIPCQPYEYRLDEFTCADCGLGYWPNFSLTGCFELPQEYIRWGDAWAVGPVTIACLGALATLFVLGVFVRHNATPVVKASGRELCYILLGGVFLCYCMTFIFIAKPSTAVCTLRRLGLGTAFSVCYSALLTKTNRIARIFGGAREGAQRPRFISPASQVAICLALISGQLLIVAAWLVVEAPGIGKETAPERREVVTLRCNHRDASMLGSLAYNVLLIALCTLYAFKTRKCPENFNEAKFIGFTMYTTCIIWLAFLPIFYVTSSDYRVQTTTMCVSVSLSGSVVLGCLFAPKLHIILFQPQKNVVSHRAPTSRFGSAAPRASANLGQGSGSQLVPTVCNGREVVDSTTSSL

Cc1c(OCc2cccc(-c3ccc(C(=O)O)cc3)c2)cc2c(c1C)C(=O)C(C1CCCC1)C2 (stereo not shown) [BINA]
Cross Correlation, Mean (0μM Glutamate + GPT/Pyruvate + 10μM BINA, Time 2.3 s, N 3): -0.01949 | Cross Correlation, Mean (0μM Glutamate + GPT/Pyruvate + 10μM BINA, Time 2.35 s, N 3): -0.01229 | Cross Correlation, Mean (0μM Glutamate + GPT/Pyruvate + 10μM BINA, Time 2.4 s, N 3): -0.01405 | Cross Correlation, Mean (0μM Glutamate + GPT/Pyruvate + 10μM BINA, Time 2.45 s, N 3): -0.01492 | Cross Correlation, Mean (0μM Glutamate + GPT/Pyruvate + 10μM BINA, Time 2.5 s, N 3): -0.01729 | Cross Correlation, Mean (0μM Glutamate + GPT/Pyruvate + 10μM BINA, Time 2.55 s, N 3): -0.01573 | Cross Correlation, Mean (0μM Glutamate + GPT/Pyruvate + 10μM BINA, Time 2.6 s, N 3): -0.01304 | Cross Correlation, Mean (0μM Glutamate + GPT/Pyruvate + 10μM BINA, Time 2.65 s, N 3): -0.01522 | Cross Correlation, Mean (0μM Glutamate + GPT/Pyruvate + 10μM BINA, Time 2.7 s, N 3): -0.01589 | Cross Correlation, Mean (0μM Glutamate + GPT/Pyruvate + 10μM BINA, Time 2.75 s, N 3): -0.00863 | Cross Correlation, Mean (0μM Glutamate + GPT/Pyruvate + 10μM BINA, Time 2.8 s, N 3): -0.00835 | Cross Correlation, Mean (0μM Glutamate + GPT/Pyruvate + 10μM BINA, Time 2.85 s, N 3): -0.01318 | Cross Correlation, Mean (0μM Glutamate + GPT/Pyruvate + 10μM BINA, Time 2.9 s, N 3): -0.01103 | Cross Correlation, Mean (0μM Glutamate + GPT/Pyruvate + 10μM BINA, Time 2.95 s, N 3): -0.01389 | Cross Correlation, Mean (Time 0.2 s, 1000μM Glutamate + 10μM BINA, N=3): -0.07372 | Cross Correlation, Mean (Time 0.25 s, 1000μM Glutamate + 10μM BINA, N=3): -0.0658 | Cross Correlation, Mean (Time 0.3 s, 1000μM Glutamate + 10μM BINA, N=3): -0.06773 | Cross Correlation, Mean (Time 0.35 s, 1000μM Glutamate + 10μM BINA, N=3): -0.06255 | Cross Correlation, Mean (Time 0.4 s, 1000μM Glutamate + 10μM BINA, N=3): -0.05489 | Cross Correlation, Mean (Time 0.45 s, 1000μM Glutamate + 10μM BINA, N=3): -0.05062 | Cross Correlation, Mean (Time 0.5 s, 1000μM Glutamate + 10μM BINA, N=3): -0.04608 | Cross Correlation, Mean (Time 0.55 s, 1000μM Glutamate + 10μM BINA, N=3): -0.05414 | Cross Correlation, Mean (Time 0.6 s, 1000μM Glutamate + 10μM BINA, N=3): -0.0452 | Cross Correlation, Mean (Time 0.65 s, 1000μM Glutamate + 10μM BINA, N=3): -0.04488 | Cross Correlation, Mean (Time 0.7 s, 1000μM Glutamate + 10μM BINA, N=3): -0.04657 | Cross Correlation, Mean (Time 0.75 s, 1000μM Glutamate + 10μM BINA, N=3): -0.03909 | Cross Correlation, Mean (Time 0.8 s, 1000μM Glutamate + 10μM BINA, N=3): -0.03858 | Cross Correlation, Mean (Time 0.85 s, 1000μM Glutamate + 10μM BINA, N=3): -0.03795 | Cross Correlation, Mean (Time 0.9 s, 1000μM Glutamate + 10μM BINA, N=3): -0.04083 | Cross Correlation, Mean (Time 0.95 s, 1000μM Glutamate + 10μM BINA, N=3): -0.04226 | Cross Correlation, Mean (Time 1 s, 1000μM Glutamate + 10μM BINA, N=3): -0.03681 | Cross Correlation, Mean (Time 1.05 s, 1000μM Glutamate + 10μM BINA, N=3): -0.03546 | Cross Correlation, Mean (Time 1.1 s, 1000μM Glutamate + 10μM BINA, N=3): -0.03003 | Cross Correlation, Mean (Time 1.15 s, 1000μM Glutamate + 10μM BINA, N=3): -0.02551 | Cross Correlation, Mean (Time 1.2 s, 1000μM Glutamate + 10μM BINA, N=3): -0.0316 | Cross Correlation, Mean (Time 1.25 s, 1000μM Glutamate + 10μM BINA, N=3): -0.02716 | Cross Correlation, Mean (Time 1.3 s, 1000μM Glutamate + 10μM BINA, N=3): -0.03167 | Cross Correlation, Mean (Time 1.35 s, 1000μM Glutamate + 10μM BINA, N=3): -0.03105 | Cross Correlation, Mean (Time 1.4 s, 1000μM Glutamate + 10μM BINA, N=3): -0.03283 | Cross Correlation, Mean (Time 1.45 s, 1000μM Glutamate + 10μM BINA, N=3): -0.03008 | Cross Correlation, Mean (Time 1.5 s, 1000μM Glutamate + 10μM BINA, N=3): -0.02156 | Cross Correlation, Mean (Time 1.55 s, 1000μM Glutamate + 10μM BINA, N=3): -0.02279 | Cross Correlation, Mean (Time 1.6 s, 1000μM Glutamate + 10μM BINA, N=3): -0.0244 | Cross Correlation, Mean (Time 1.65 s, 1000μM Glutamate + 10μM BINA, N=3): -0.02489 | Cross Correlation, Mean (Time 1.7 s, 1000μM Glutamate + 10μM BINA, N=3): -0.02216 | Cross Correlation, Mean (Time 1.75 s, 1000μM Glutamate + 10μM BINA, N=3): -0.02536 | Cross Correlation, Mean (Time 1.8 s, 1000μM Glutamate + 10μM BINA, N=3): -0.02663 | Cross Correlation, Mean (Time 1.85 s, 1000μM Glutamate + 10μM BINA, N=3): -0.0191 | Cross Correlation, Mean (Time 1.9 s, 1000μM Glutamate + 10μM BINA, N=3): -0.02267 | Cross Correlation, Mean (Time 1.95 s, 1000μM Glutamate + 10μM BINA, N=3): -0.02058 | Cross Correlation, Mean (Time 2 s, 1000μM Glutamate + 10μM BINA, N=3): -0.01998 | Cross Correlation, Mean (Time 2.05 s, 1000μM Glutamate + 10μM BINA, N=3): -0.02099 | Cross Correlation, Mean (Time 2.1 s, 1000μM Glutamate + 10μM BINA, N=3): -0.01699 | Cross Correlation, Mean (Time 2.15 s, 1000μM Glutamate + 10μM BINA, N=3): -0.01762 | CRD dynamics by cross-correlation of donor and acceptor intensities (azi-CRD, 10 μM modulator, absence of glutamate): increased receptor dynamics
